According to patent US12060400B2, “Peptides for use in immunotherapy against cancers” (Immatics Biotechnologies GmbH, priority 2018, dated 2024):

The substances below were run on HLA-A*24 (assay: MHC binding assay: UV-ligand exchange with beta2m ELISA (peptide exchange yield)). Details: Table 11, binding to HLA-A*24, UV-ligand exchange.
Design: species or system human
Procedure, shortened: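 Peptide-MHC complexes generated by UV-induced exchange of a photocleavable ligand with the test peptide; exchange yield quantified by streptavidin-capture ELISA detecting β2m (HRP anti-β2m, TMB, A450). Samples diluted 100-fold, with refolded HLA-A*02:01/MLA-001 monomers (15-500 ng/ml) as standards.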

Row | Substance | Peptide exchange (MHC class I binding score, peptide exchange yield)
1 | 150 (FIPVAWLIF; listed as Homo sapiens) [compound 150] | +++ (>50 = +++)
2 | 165 (KDQPQVPCVF; listed as Homo sapiens) [compound 165] | + (>10% = +)
3 | 117 (RSMEHPGKLLF; listed as Homo sapiens) [compound 117] | +++ (>50 = +++)
4 | 241 (QKYYITGEAEGF; listed as Homo sapiens) [compound 241] | ++++ (>75% = ++++)
5 | 383 (PYFSPSASF; listed as Homo sapiens) [compound 383] | ++++ (>75% = ++++)
6 | 35 (FSSTLVSLF; listed as Homo sapiens) [compound 35] | ++ (>20% = ++)
7 | 339 (KQVIGIHTF; listed as Homo sapiens) [compound 339] | + (>10% = +)
8 | 71 (RYLPNPSLNAF; listed as Homo sapiens) [compound 71] | ++++ (>75% = ++++)
9 | 138 (MMVTVVALF; listed as Homo sapiens) [compound 138] | +++ (>50 = +++)
10 | 249 (HQYGGAYNRV; listed as Homo sapiens) [compound 249] | ++ (>20% = ++)
11 | 137 (ALFAVCWAPF; listed as Homo sapiens) [compound 137] | ++ (>20% = ++)
12 | 326 (VHMKDFFYF; listed as Homo sapiens) [compound 326] | ++++ (>75% = ++++)
13 | 68 (VYKEDLPQL; listed as Homo sapiens) [compound 68] | ++++ (>75% = ++++)
14 | 27 (LSCTATPLF; listed as Homo sapiens) [compound 27] | +++ (>50 = +++)
15 | 90 (TDLVQFLLF; listed as Homo sapiens) [compound 90] | ++ (>20% = ++)
16 | 316 (IWAERIMF; listed as Homo sapiens) [compound 316] | +++ (>50 = +++)
17 | 344 (YAYATVLTF; listed as Homo sapiens) [compound 344] | ++ (>20% = ++)
18 | 11 (RAMCAMMSF; listed as Homo sapiens) [compound 11] | ++ (>20% = ++)
19 | 93 (TDWSPPPVEF; listed as Homo sapiens) [compound 93] | +++ (>50 = +++)
20 | 259 (FFLFIPFF; listed as Homo sapiens) [compound 259] | ++ (>20% = ++)
21 | 195 (IYNEHGIQQI; listed as Homo sapiens) [compound 195] | ++++ (>75% = ++++)
22 | 55 (AVLRHLETF; listed as Homo sapiens) [compound 55] | ++ (>20% = ++)
23 | 36 (VYLASVAAF; listed as Homo sapiens) [compound 36] | ++++ (>75% = ++++)
24 | 307 (RILTEFELL; listed as Homo sapiens) [compound 307] | +++ (>50 = +++)
25 | 67 (SYVLQIVAI; listed as Homo sapiens) [compound 67] | +++ (>50 = +++)
26 | 206 (EVVHTVFLF; listed as Homo sapiens) [compound 206] | ++ (>20% = ++)
27 | 207 (IYKFIMDRF; listed as Homo sapiens) [compound 207] | ++++ (>75% = ++++)
28 | 343 (EYQQYHPSL; listed as Homo sapiens) [compound 343] | ++++ (>75% = ++++)
